Source: patent US11324742B2, “Treatment of demyelinating diseases” (Victoria Link Ltd., priority 2018, dated 2022)
Where two headings read alike, the source gives them in different places.

Columns and labels:
[1] = test system: itch; settings: human; cited from earlier work
[2] = test system: myelin in corpus callosum of cuprizone-treated mice; assay: Cuprizone model, TEM of corpus callosum (g-ratio, myelinated axons, myelin area); type: in vivo, female C57BL/6 mice
[3] = test system: leucocyte infiltration into the spinal cord of EAE mice; assay: EAE model, H&E staining of spinal cord (leucocyte infiltration); type: in vivo, female C57BL/6 mice; settings: 0.01 mg/kg daily i.p. from onset; chronic phase
[4] = test system: cuprizone demyelination disease model of MS; assay: Cuprizone model of demyelination, weight change; type: in vivo, female C57BL/6 mice
[5] = test system: myelin in spinal cord of EAE mice; assay: EAE model, TEM of spinal cord sections; type: in vivo, female C57BL/6 mice; settings: 0.03 mg/kg daily i.p. from day 17; day 45
[6] = test system: Morphine induced scratch; settings: SC, EMA/CHMP/138212/2014; cited from earlier work
[7] = cited from earlier work
[8] = test system: Substance P induced scratch; assay: Substance P induced scratch mouse model; settings: SC or IV administration, top two rows of the table only, read-out: average in vivo efficacy ED50 for itch model
[9] = test system: activated GFAP+ astrocytes in the spinal cord of EAE mice; assay: EAE model, GFAP immunohistochemistry of spinal cord (activated astrocytes); type: in vivo, female C57BL/6 mice; settings: 0.01 mg/kg daily i.p. from day 17; day 45
[10] = test system: cuprizone model of demyelination; assay: Cuprizone model, rotarod assay (coordination); type: in vivo, female C57BL/6 mice; settings: 0.1 mg/kg daily i.p.; week 9 relative to week 5
[11] = test system: infiltrating immune cells (CD45high) in brain of EAE mice; assay: EAE model, immune cell infiltration into the brain by flow cytometry; type: in vivo, female C57BL/6 mice
[12] = test system: Substance P induced scratch; settings: cited from earlier work
[13] = test system: myelin in spinal cord of EAE mice; assay: EAE model, luxol fast blue staining of spinal cord (demyelination); type: in vivo, female C57BL/6 mice
[14] = test system: lymphocyte populations in the spleen of EAE mice; assay: EAE model, splenocytes by flow cytometry; type: in vivo, female C57BL/6 mice; settings: 0.01 mg/kg daily i.p. from onset
[15] = test system: cuprizone demyelination disease model of MS; assay: Cuprizone model, von Frey mechanical withdrawal threshold; type: in vivo, female C57BL/6 mice; settings: 0.1 mg/kg/i.p. daily
[16] = test system: Histamine induced scratch; settings: PO, Togashi et al. (2002); cited from earlier work
[17] = 0.1 mg/kg/i.p. daily from day 28, day 70

Compound: CN(C(=O)/C=C/c1ccoc1)[C@@H]1CC[C@@]2(O)[C@H]3Cc4ccc(O)c5c4[C@@]2(CCN3CC2CC2)[C@H]1O5 [nalfurafine, (E)-N-[(4R,4aS,7R,7aR,12bS)-3-(cyclopropylmethyl)-4a,9-dihydroxy-1,2,4,5,6,7,7a,13-octahydro-4,12-methanobenzofuro[3,2-e]isoquinoline-7-yl]-3-(furan-3-yl)-N-methylprop-2-enamide]
- effective dose in humans for itch [1]: 2.5 μg/body/day
- myelin in corpus callosum (TEM, g-ratio) ([2]; 0.1 mg/kg daily i.p. from week 4, day 65 (Example 9)): more myelin was detected
- area of myelin staining per TEM image [2, 17]: percentage increase in area of myelination
- mean g-ratio (corpus callosum) [2, 17]: 0.75±0.15
- number of myelinated axons vs non-myelinated axons [2, 17]: percentage increase in the number of myelinated axons
- leucocyte infiltration score (0-3), H&E [3]: reduction of infiltrating leucocytes
- % weight change in recovery phase ([4]; 0.1 mg/kg daily i.p. from day 28, cuprizone 35 days, vs vehicle or U-50488): enhances recovery of the lost weight faster
- % weight change (reversal of cuprizone weight loss) ([4]; 0.1 mg/kg daily i.p. from week 4, 0.3% cuprizone 5 weeks, vs vehicle (Example 7)): reversed significantly more effectively
- myelination of nerve axons in spinal cord (TEM) [5]: healthy and well-myelinated
- Complete Inhibition [6]: 5 to 10 µg/kg
- ED50 [6]: 2.34 µg/kg
- Bioavailability ([7]; intravenous (IV)): 100%
- Bioavailability ([7]; oral (PO) administration): ~32%
- Bioavailability ([7]; subcutaneous (s.c.)): 96%
- ED50 [8]: ~2.71 µg/kg
- number of activated GFAP+ astrocytes per section [9]: significantly reduces
- rotarod performance (coordination) [10]: reversed
- number of infiltrating immune cells in brain (ratio to microglia) ([11]; 0.03 mg/kg daily i.p. from day 17, day 45): significantly reduced
- number of infiltrating immune cells in brain (ratio to microglia) ([11]; 0.03 and 0.01 mg/kg daily i.p. from onset, chronic phase (>24 days)): significantly reduced
- Complete Inhibition ([12]; IV, EMA/CHMP/138212/2014): 7.5 to 10 µg/kg
- ED50 ([12]; IV, EMA/CHMP/138212/2014): 3.77 µg/kg
- Inhibition reached at the dose given under Complete Inhibition ([12]; PO, 100 μg/kg, EMA/CHMP/138212/2014): (66%)
- Complete Inhibition ([12]; PO, EMA/CHMP/138212/2014): 100 µg/kg
- ED50 ([12]; PO, EMA/CHMP/138212/2014): 9.61 µg/kg
- Complete Inhibition ([12]; PO, Togashi et al. (2002)): 100 µg/kg
- ED50 ([12]; PO, Togashi et al. (2002)): 19.6 µg/kg
- Complete Inhibition ([12]; SC, EMA/CHMP/138212/2014): 10 µg/kg
- ED50 ([12]; SC, EMA/CHMP/138212/2014): 1.65 µg/kg
- lesion load and myelin density in ventral horn (luxol fast blue) ([13]; 0.01 mg/kg daily i.p. from onset, chronic phase (Example 25)): reduces this lesion load and demyelination
- % demyelination of spinal cord (luxol fast blue) ([13]; 0.03 or 0.01 mg/kg daily i.p. from onset, chronic phase): significant reduction
- proportion of major lymphocyte populations in spleen (CD4, CD8, B220; % live leukocytes) ([14]; 27 days post treatment initiation): do not alter
- Teff:cm ratio (effector to central memory CD4 T cells) ([14]; 27 days, vs vehicle): reduced ratio
- overall number of CD4 T cells in spleen ([14]; 27 days, vs vehicle): the same
- mechanical withdrawal threshold (von Frey) ([15]; pre vs post treatment): reduced to baseline levels
- mechanical threshold scores (von Frey) ([15]; vs vehicle treated mice): improved mechanical threshold scores
- Complete Inhibition [16]: 30 to 100 µg/kg
- ED50 [16]: 7.3 µg/kg
